Laboratory results: patent US10071998B2, “Iminothiadiazine dioxides bearing an amine-linked substituent as BACE inhibitors, compositions, and their use” (Merck Sharp & Dohme Corp., priority 2015, dated 2018)
Read-outs that look alike come from different tables or passages of the source.

Columns and labels:
[1] = target: Recombinant human soluble BACE-1 catalytic domain (Homo sapiens (Human), UniProt P56817); assay: BACE-1 Ki Assay (BACE-1 HTRF FRET Assay); type: biochemical
Method: Assay 1: BACE-1 Ki Assay (BACE-1 HTRF FRET Assay)
The compounds of the invention were assessed for their ability to inhibit BACE-1 using the following assay.
The following reagents were used in this assay. Na^+-Acetate pH 5.0; 1% Brij-35; Glycerol; Dimethyl Sulfoxide (DMSO); Recombinant human soluble BACE-1 catalytic domain (>95% pure); APP Swedish mutant peptide substrate (QSY7-APP^swe-Eu): QSY7-EISEVNLDAEFC-Europium-amide.
A homogeneous time-resolved FRET assay can be used to determine IC50 values for inhibitors of the soluble human BACE-1 catalytic domain. This assay monitors the increase of 620 nm fluorescence that resulted from BACE-1 cleavage of an APPswedish APP^swe mutant peptide FRET substrate (QSY7-EISEVNLDAEFC-Europium-amide). This substrate contains an N-terminal QSY7 moiety that serves as a quencher of the C-terminal Europium fluorophore (620 nm Em). In the absence of enzyme activity, 620 nm fluorescence is low in the assay and increased linearly over 3 hours in the presence of uninhibited BACE-1 enzyme. Inhibition of BACE-1 cleavage of the QSY7-APP^swe-Eu substrate by inhibitors is manifested as a suppression of 620 nm fluorescence.
Varying concentrations of inhibitors at 3× the final desired concentration in a volume of 10 ul are preincubated with purified human BACE-1 catalytic domain (3 nM in 10 μl) for 30 minutes at 30° C. in reaction buffer containing 20 mM Na-Acetate pH 5.0, 10% glycerol, 0.1% Brij-35 and 7.5% DSMO. Reactions are initiated by addition of 10 μl of 600 nM QSY7-APP^swe-Eu substrate (200 nM final) to give a final reaction volume of 30 μl in a 384 well Nunc HTRF plate. The reactions are incubated at 30° C. for 1.5 hours. The 620 nm fluorescence is then read on a Rubystar HTRF plate reader (BMG Labtechnologies) using a […] delay followed by a 400 millisecond acquisition time window. Inhibitor IC50 values are derived from non-linear regression analysis of concentration response curves. Ki values are then calculated from IC50 values using the Cheng-Prusoff equation using a previously determined […] of 8 μM for the QSY7-APP^swe-Eu substrate at BACE-1. The example compounds of the invention were measured in this assay.

[2] = target: purified human autoBACE-2 (Homo sapiens (Human), UniProt Q9Y5Z0); assay: BACE-2 Assay (BACE-HTRF assay); type: biochemical; details: Table 1; Ki calculated from IC50 with Cheng-Prusoff equation; read-out: BACE2 Ki
Method: Inhibitor IC50s, at purified human autoBACE-2 are determined in a time-resolved endpoint proteolysis assay that measures hydrolysis of the QSY7-EISEVNLDAEFC-Eu-amide FRET peptide substrate (BACE-HTRF assay). BACE-mediated hydrolysis of this peptide results in an increase in relative fluorescence (RFU) at 620 nm after excitation with 320 nm light. Inhibitor compounds, prepared at 3× the desired final concentration in 1× BACE assay buffer (20 mM sodium acetate pH 5.0, 10% glycerol, 0.1% Brij-35) supplemented with 7.5% DMSO are pre-incubated with an equal volume of autoBACE-2 enzyme diluted in 1×BACE assay buffer (final enzyme concentration 1 nM) in black 384-well NUNC plates for 30 minutes at 30° C. The assay is initiated by addition of an equal volume of the QSY7-EISEVNLDAEFC-Eu-amide substrate (200 nM final concentration, Km=8 μM […] for autoBACE-2) prepared in 1×BACE assay buffer supplemented with 7.5% DMSO and incubated for 90 minutes at 30° C. DMSO is present at 5% final concentration in the assay. Following laser excitation of sample wells at 320 nm, the fluorescence signal at 620 nm is collected for 400 ms following a 50 μs delay on a RUBYstar HTRF plate reader (BMG Labtechnologies). Raw RFU data is normalized to maximum (1.0 nM BACE/DMSO) and minimum (no enzyme/DMSO) RFU values. IC50 values are determined by nonlinear regression analysis (sigmoidal dose response, variable slope) of percent inhibition data with minimum and maximum values set to 0 and 100 percent respectively. Similar IC50s are obtained when using raw RFU data. The Ki values are calculated from the IC50 using the Cheng-Prusoff equation.

[3] = system: CSF levels of Aβ1-40 (Aβ40); assay: Aβ Reduction In Vivo (rat CSF Aβ40); details: 3 h, 10 mg/kg oral gavage
Method: Assay 3: Aβ Reduction In Vivo
The in vivo efficacy and/or potency of BACE inhibitors (test compounds) can be evaluated using a variety of animal models, including mouse, rat, dog, and monkey, and these animals can be wild type, transgenic, or gene knockout animals.
Generally, animals are administered (by oral gavage, intravenous injection, or by other suitable route) a test compound in doses ranging from, for example, 0.1 mg/kg (mg of compound per kg of animal body weight) to 100 mg/kg formulated in vehicles, such as cyclodextrin, phosphate buffer, hydroxypropyl methylcellulose or other suitable vehicles. One to twenty-four hours following the administration of compound, animals are sacrificed, and tissues (for example, brain, cerebrospinal fluid (CSF), and/or plasma) are collected for analysis of Aβ levels and/or test compound concentrations (Dovey et al., 2001, Journal of Neurochemistry, 76, 173-181). Tissue samples are processed appropriately and then analyzed for the presence of Aβ by specific sandwich ELISA assays based on electrochemiluminescence (ECL) technology.
For example, in the following assay for which data are reported below, male CD IGS rats (body weight approximately 120 g, Charles River Laboratories, Kingston, N.Y.) were used to asses lowering of CSF levels of Aβ1-40 (Aβ40) in the presence of compounds of the invention. At time 0, animals were administered by oral gavage a test compound at a dose of 10 mg/kg in 20% hydroxypropyl-β-cyclodextrin (dosing volume 5 mL/kg). A separate group of animals received 20% hydroxypropyl-β-cyclodextrin alone to serve as the vehicle control group. Three hours after administration, the rats were euthanized with excess CO2. Immediately following euthanasia, CSF was collected from the cisterna magna and quickly frozen on dry ice. Samples were stored at −80° C. until quantification of Aβ40 levels.
The measurement of endogenous rat Aβ40 in CSF relied on the 585 antibody (Ab585, BioSource, NONO585), which specifically recognizes the N-terminal sequence of rodent Aβ40, and on the monoclonal antibody, G2-10, which specifically recognizes the free C-terminus of Aβ40. Ab585 was labeled with biotin (b-Ab585) by first dialyzing the antibody sample extensively versus PBS (pH 7.8) to remove impurities, followed by dilution to between 1 and 2 mg/mL protein concentration. EZ-Link Sulfo-NHS-LC-Biotin (Pierce) was dissolved in PBS (pH 7.8) at a concentration of 1 mg/mL immediately prior to use. Ab585 was labeled with EZ-Link Sulfo-NHS-LC-biotin using a 10:1 biotin:antibody ratio by incubation at room temperature for 1 hour. The labeling reaction was quenched by addition of 1.0 M glycine to a final concentration of 0.1 M followed by 10 minute incubation at room temperature. Glycine was removed by extensive dialysis versus PBS.
For rat CSF Aβ40 determinations, a calibration curve of various concentrations of synthetic rodent Aβ40 was assayed in parallel with rat CSF samples in duplicate using an avidin-coated 96-well MSD plate (Mesoscale Diagnostics). Either 50 μL of rodent Aβ40 standards diluted in PBS (pH 7.4) supplemented with 1% BSA and 1% Tween-20 (standard diluent buffer) or 40 μL of standard diluent buffer plus 10 μL rat CSF were added to each 96 well avidin-coated plate. To each well was added 50 μL of 0.1 M HEPES (pH 7.5), 2% BSA, 2% Tween-20, 0.3 M NaCl (2× Aβ40 buffer) supplemented with the b-Ab585 capture and ruthenylated-G2-10 detection antibodies diluted to 1 μg/mL and 0.5 μg/mL, respectively. Plates were shaken for 1 min on a microplate shaker, covered to protect from light and incubated overnight (˜16 h) at 4° C. For detection, plates were first washed twice with 100 μL of 1×CSF Aβ40 buffer followed by addition of 160 μL of 1×MSD read buffer-T (Mesoscale Diagnostics) diluted in 1×CSF Aβ40 buffer. Plates were read on a MSD Sector Imager 2400 model (Mesoscale Diagnosotics). […]

[4] = Table 1, Ki calculated from IC50 with Cheng-Prusoff equation, read-out: BACE1 Ki
[5] = Table 2, male CD IGS rats, CSF three hours after administration, percent change vs vehicle cohort

Recombinant human soluble BACE-1 catalytic domain, sequence (P56817 75-416): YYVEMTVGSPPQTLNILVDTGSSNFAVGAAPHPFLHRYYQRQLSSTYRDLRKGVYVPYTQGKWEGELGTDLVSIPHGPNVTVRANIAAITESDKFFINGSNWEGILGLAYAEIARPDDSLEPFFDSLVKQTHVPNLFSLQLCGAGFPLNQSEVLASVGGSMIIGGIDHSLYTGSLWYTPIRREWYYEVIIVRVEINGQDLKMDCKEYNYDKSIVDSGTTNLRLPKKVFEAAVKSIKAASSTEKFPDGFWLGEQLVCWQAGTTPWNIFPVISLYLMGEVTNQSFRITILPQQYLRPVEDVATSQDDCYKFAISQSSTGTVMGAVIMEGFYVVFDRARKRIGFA
purified human autoBACE-2, sequence (Q9Y5Z0 63-473): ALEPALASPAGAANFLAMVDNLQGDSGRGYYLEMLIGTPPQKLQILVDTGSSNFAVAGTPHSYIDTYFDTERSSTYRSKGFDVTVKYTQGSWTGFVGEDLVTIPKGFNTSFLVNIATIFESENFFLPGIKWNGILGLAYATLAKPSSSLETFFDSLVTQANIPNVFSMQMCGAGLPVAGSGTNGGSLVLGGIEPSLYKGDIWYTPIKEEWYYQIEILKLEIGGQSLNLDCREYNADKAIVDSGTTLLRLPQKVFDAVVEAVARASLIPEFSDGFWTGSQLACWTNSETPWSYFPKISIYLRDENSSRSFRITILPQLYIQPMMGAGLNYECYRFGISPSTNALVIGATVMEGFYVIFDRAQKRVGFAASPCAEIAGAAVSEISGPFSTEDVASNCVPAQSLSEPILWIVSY

Compound	Ki [1, 4]	Ki ([1]; Table 2, read-out: BACE1 Ki)	Ki [2]	change in vivo at 10 mg/kg [3, 5]	Ki ([1]; Table 3, comparator compounds of WO2011044181, read-out: BACE-1 Ki Nm)	change in vivo at 10 mg/kg ([3]; Table 3, comparator compounds of WO2011044181, rats, CSF at three hours, percent change vs vehicle)
COc1cnc2c(Nc3ccc(F)c([C@]4(C)CS(=O)(=O)N(C)C(=N)N4)c3)nccc2c1 [Example 4, N-{4-fluoro-3-[(5R)-3-imino-2,5-dimethyl-1,1-dioxido-1,2,4-thiadiazinan-5-yl]phenyl}-3-methoxy-1,7-naphthyridin-8-amine]	11.7 nM	12 nM	5.8 nM	-45%	–	–
CN1C(=N)N[C@](C)(c2cc(Nc3nccc4cc(C#N)cnc34)ccc2F)CS1(=O)=O [Example 6, 8-({4-fluoro-3-[(5R)-3-imino-2,5-dimethyl-1,1-dioxido-1,2,4-thiadiazinan-5-yl]phenyl}amino)-1,7-naphthyridine-3-carbonitrile]	1.31 nM	1.3 nM	0.46 nM	-50%	–	–
CN1C(=N)N[C@](C)(c2c(F)ccc(Nc3nccc4cc(C#N)cnc34)c2F)CS1(=O)=O [Example 11, 8-({2,4-difluoro-3-[(5R)-3-imino-2,5-dimethyl-1,1-dioxido-1,2,4-thiadiazinan-5-yl]phenyl}amino)-1,7-naphthyridine-3-carbonitrile]	2.1 nM	2.1 nM	1.1 nM	-50%	–	–
CN1C(=N)N[C@](C)(c2cc(Nc3ncnc4cc(C#N)cnc34)ccc2F)CS1(=O)=O [Example 7, 4-({4-fluoro-3-[(5R)-3-imino-2,5-dimethyl-1,1-dioxido-1,2,4-thiadiazinan-5-yl]phenyl}amino)pyrido[3,2-d]pyrimidine-7-carbonitrile]	3.2 nM	3.2 nM	3 nM	-21%	–	–
CN1C(=N)N[C@](C)(c2cc(Nc3nccc4cc(F)cnc34)ccc2F)CS1(=O)=O [Example 8, 3-fluoro-N-{4-fluoro-3-[(5R)-3-imino-2,5-dimethyl-1,1-dioxido-1,2,4-thiadiazinan-5-yl]phenyl}-1,7-naphthyridin-8-amine]	2.1 nM	2.1 nM	0.24 nM	-21%	–	–
COc1cnc2c(Nc3ccc(F)c([C@]4(C)CS(=O)(=O)N(C)C(=N)N4)c3)ncnc2c1 [Example 14, N-{4-fluoro-3-[(5R)-3-imino-2,5-dimethyl-1,1-dioxido-1,2,4-thiadiazinan-5-yl]phenyl}-7-methoxypyrido[3,2-d]pyrimidin-4-amine]	4.3 nM	4.3 nM	4.4 nM	-55%	–	–
CN1C(=N)N[C@](C)(c2cc(Nc3nccc4nc(C(F)F)cnc34)ccc2F)CS1(=O)=O [Example 12, 2-(difluoromethyl)-N-{4-fluoro-3-[(5R)-3-imino-2,5-dimethyl-1,1-dioxido-1,2,4-thiadiazinan-5-yl]phenyl}pyrido[3,4-b]pyrazin-5-amine]	5.2 nM	5.2 nM	1.8 nM	-44%	–	–
COc1cnc2c(Nc3ccc(F)c([C@]4(C)CS(=O)(=O)N(C)C(=N)N4)c3)nccc2n1 [Example 9, N-{4-fluoro-3-[(5R)-3-imino-2,5-dimethyl-1,1-dioxido-1,2,4-thiadiazinan-5-yl]phenyl}-2-methoxypyrido[3,4-b]pyrazin-5-amine]	2.6 nM	2.6 nM	3.5 nM	-68%	–	–
COc1cccnc1Nc1ccnc([C@]2(C)CS(=O)(=O)N(C)C(=N)N2)c1 [165 (Table XXI), reference compound]	–	–	–	–	48 nM	-11%
